Assays:
GARFT = conditions: Muggia, New Drugs, Concepts and Results in Cancer Chemotherapy, 1992; cited from earlier work
[1] = tested on: C3H/BA mammary adenocarcinoma; experiment: In vivo antitumor activity, C3H/BA mammary adenocarcinoma implanted subcutaneously in C3H/He female mice; conditions: day 14
Experimental: (§1) On day zero, 2 mm^2 trocar fragments of C3H/BA mammary adenocarcinoma were implanted subcutaneously in the axillary region into groups of six C3H/He female mice. Starting on day 1, the test compound was administered intraperitoneally in 40% Encapsin given once daily for nine days. Control animals received identical treatment without test compound. The percentage of inhibition was calculated by comparing the mass of the control tumors (receiving diluent only) on day 14 to those of animals receiving test compound.

6C3HED lymphosarcoma = experiment: In vivo antitumor activity, 6C3HED lymphosarcoma implanted subcutaneously in C3H/He female mice
Experimental: as §1, with “6C3HED lymphosarcoma” for “C3H/BA mammary adenocarcinoma”, “percentage” for “percentage of”, “inhibition given in Table 5 below” for “inhibition”, “11” for “14”

CCRF-CEM = experiment: In vitro growth inhibition of CCRF-CEM cells, Example 2 (MTT); assay type: cell-based; conditions: Homo sapiens, continuous exposure (title: 72-hour; method: 5 days), mean IC50, read-out: IC50 Cell Culture CCRF-CEM
Experimental: All cultures were maintained at 37° C. 5% air-CO2 in a humidified incubator.
Stock solutions of the inhibitors were prepared in 10 mM sodium bicarbonate in water and stored in i ml aliquots at -20° C. for cell culture experiments. Cell growth inhibition was measured by a modification of the method of Mosmann, J. Immunol. Methods 65 (1983), 55-63.
Mid-log phase cells of each cell line were diluted to 18,500 cells/ml in fresh RPMI growth medium (Mediatech, Washington, D.C.) supplemented with dialyzed fetal calf serum (Hyclone Laboratories Inc., Logan, Utah) and then aliquotted into columns 2 through 12 of 96-well microtiter plates. Column 1 was filled with the same volume ([…]) of fresh medium, without cells, for use as a blank. The plates were then placed in a 37° C., 5% air-CO2 incubator. After 1 to 4 hours, plates were removed from the incubator followed by addition of Compound (21) at 10× final concentration, […] in binary dilutions, to columns 12 to 4. […] The extent of metabolized MTT was measured spectrophotometrically at 540 nm on a Molecular Devices Vmax™ kinetic microplate reader. The concentration of drug required to reduce cell growth by 50% as measured by MTT metabolism was determined by interpolation between the O.D. (minus blank) immediately above and below 50% of control O.D. (minus blank). […]

Row | SMILES | GARFT inhibition and antitumor activity (literature) (GARFT) | % Inhibition (tumor mass) ([1]; 5 mg/kg i.p. once daily for nine days) [%] | % Inhibition (tumor mass) ([1]; 10 mg/kg i.p. once daily for nine days) [%] | % Inhibition (tumor mass) ([1]; 20 mg/kg i.p. once daily for nine days) [%] | % Inhibition (tumor mass) (6C3HED lymphosarcoma; 12.5 mg/kg i.p. once daily for nine days, day 11) [%] | % Inhibition (tumor mass) (6C3HED lymphosarcoma; 25 mg/kg i.p. once daily for nine days, day 11) [%] | % Inhibition (tumor mass) (6C3HED lymphosarcoma; 50 mg/kg i.p. once daily for nine days, printed as a word in the % Inhibition column) | IC50 (CCRF-CEM) [nM]
1 | Nc1nc2c(c(=O)[nH]1)CC(CCc1ccc(C(=O)N[C@@H](CCC(=O)O)C(=O)O)cc1)CN2 (some centres unmarked) [5,10-dideazatetrahydrofolic acid] | specific tight binding inhibitor of GARFT, 5,10-dideazatetrahydrofolic acid, has been reported to show antitumor activity |  |  |  |  |  |  | 
2 | Nc1nc2c(c(=O)[nH]1)SC(CCc1ccc(C(=O)N[C@@H](CCC(=O)O)C(=O)O)s1)CN2 (stereo partly drawn) [Compound 21, 4-[2-(2-Amino-4-oxo-4,6,7,8-tetrahydro-3H-pyrimido[5,4-6][1,4]thiazin-6-yl)-ethyl]-2,5-thienoylamino-L-glutamic acid] |  | 16 | 84 | 100 | 100 | 100 | toxic | 4.3

Source: patent publication US5641774A, “Compounds useful as antiproliferative agents and garft inhibitors” (Agouron Pharmaceuticals, Inc., priority 1995, dated 1997)
